Format in all cases: functional
The test system of test [1] is Radical scavenging activity. In words: DPPH radical scavenging activity at 0.0156 g/L.
Test [2] deals with Radical scavenging activity. In words: DPPH radical scavenging activity at 0.0312 g/L.
The subject of test [3] is Radical scavenging activity. In words: DPPH radical scavenging activity at 0.0625 g/L.
Test [4] deals with Radical scavenging activity. In words: DPPH radical scavenging activity at 0.125 g/L.
For test [5], the system named is Radical scavenging activity. In words: DPPH radical scavenging activity at 0.250 g/L.

SMILES strings stand for the structures.

As for `COc1ccc(Nc2cc3sc(C)c(C)c3cc2C)cc1OC`, the Activity in test [1] turned out to be 49%; in test [2], 65.3%; in test [3], 74.6%; in test [4] it was 75%; in test [5] it was 75.4%.

Take `CCOC(=O)c1sc2ccccc2c1Nc1ccc(F)cc1`: the Activity in test [1] amounted to 0%; in test [2], 0.54%; in test [3], 0.72%; in test [4], 0.86%; in test [5], 0.9%.

Regarding `COc1ccc(O)c(C(C)(C)C)c1.COc1ccc(O)cc1C(C)(C)C`, the Activity amounted to 41.2% in test [1]; 63% in test [2]; 75.7% in test [3]; 83% in test [4]; 84% in test [5].

Regarding `CCOC(=O)c1sc2ccccc2c1Nc1ccc(OC)cc1`, the Activity in test [1] is 0%; in test [2] it was 0%; in test [3], 0.4%; in test [4], 0.74%; in test [5], 0.78%.

With `Fc1ccc(Nc2csc3ccccc23)cc1`, the Activity in test [1] was 26.8%; in test [2] it was 44.7%; in test [3], 67.7%; in test [4], 83.4%; in test [5] it was 85%.

As for `Cc1cc2c(C)c(C)sc2cc1Nc1ccccc1F`, the Activity in test [1] worked out at 0%; in test [2], 0%; in test [3], 0.52%; in test [4], 0.54%; in test [5], 1.21%.

Take `CCOC(=O)c1sc2ccccc2c1Nc1ccc(OC)cc1OC`: the Activity in test [1] is 20.8%; in test [2], 34.8%; in test [3] it was 51.1%; in test [4], 64.7%; in test [5] it was 74.8%.

As to `COc1ccc(Nc2cc3sc(C)c(C)c3cc2C)cc1`, the Activity is 38.3% in test [1]; 68.5% in test [2]; 76.6% in test [3]; 76.8% in test [4]; 77% in test [5].

With `Cc1cc(C(C)(C)C)c(O)c(C(C)(C)C)c1`, the Activity in test [1] was 28%; in test [2], 38.3%; in test [3], 60%; in test [4], 82.3%; in test [5] it was 83%.

Consider `Cc1cc2c(C)c(C)sc2cc1Nc1ccc(F)cc1`, for which the Activity came to 0% in test [1]; 0% in test [2]; 0% in test [3]; 0.4% in test [4]; 2.8% in test [5].

For `COc1ccc(Nc2c(C(=O)O)sc3ccccc23)c(OC)c1`, the Activity in test [1] was found to be 8.9%; in test [2], 30.7%; in test [3] it was 44.7%; in test [4] it was 63%; in test [5] it was 84%.

The values are drawn from ChEMBL document CHEMBL1139035, “Evaluation of the antioxidant properties of diarylamines in the benzo[b]thiophene series by free radical scavenging activity and reducing power” (Bioorg Med Chem Lett, 2006).
